Values after ≈ are worked out from the molar mass of the structure shown. Where two headings read alike, the source gives them in different places.
Columns and labels:
Jurkat cells = test: Inhibitory action for G2 checkpoint using Jurkat cells (cell cycle by FACS); type: cell-based, human; details: for IC50: Homo sapiens; for selectivity: specificity to the G2 phase cells, Table 1; for differences between both concentrations: IC50 (col) versus IC50 (bleo)
Description: (§1) An assay method of G2 arrest activity with treatment of anticancer agent using cancer cells is performed according to the method of Suganuma et al. (Cancer Research, […]: 5887-5891, 1999).
Jurkat cells derived from human lymphoma were cultured in RPMI 1640 medium (a medium adding an inactivated fetal bovine serum (JRH Bioscience Inc.) 50 ml and a mixture 50 ml of penicillin (10,000 units/ml) and streptomycin (10 mg/ml) (Invitrogen Inc.) in RPMI 1640 (IWAKI Co., Ltd.) 500 ml) by using a 75 cm^3 culture flask. After centrifugation of the Jurkat cells at 1, 000 rpm for 10 minutes, the supernatant was removed by using aspirator to adjust the number of cells to be 5 × 10^5 cells/ml with addition of RPMI 1640 medium. Bleomycin (Nippon Kayaku Co., Ltd.) or colchicines (Sigma Inc.) was added to be the final concentration of 40 µM or 0.5 µM, respectively, into the cell suspension. The suspension was added into each well of 96 well multiplate (Corning Corp., the U.S.), which was previously air dried after adding FKI-2342A - F substances 200 µl (1 × 10^5 cells/well) in each well, and incubated at 37°C for 20 hours.
Cells after culturing for 20 hours were centrifuged at 1,000 rpm for 10 minutes, and the supernatant was removed by using aspirator. Krishan's reagent (trisodium citrate (Wako Pure Chemical Industries, Ltd.) […], IGEPALCA-630 (Sigma Inc.) 1.5 ml, ribonuclease A (Sigma Inc.) 10 mg and propydium iodide (Sigma Inc.) 25 mg dissolved in sterilized water 50.0 ml) […] was added to each well. The well was covered with aluminum foil for light shielding and allowed to stand at room temperature for 1 hour with gently shaking by the shaker to perform DNA staining. Measurement of cell cycle was performed by measuring 10,000 cells using FACS Caliber (Becton Dickinson Inc.) to calculate ratio of cells in sub G1, G1, S, and G2/M phase by using analytical software Ce 11 Quest.
(§2) Experimental results in relation to FKI-2342A substance - F substance were obtained by using the index of the G2/M phase cell. A concentration of substance wherein the number of cells at G2 phase is reduced to 50% when the number of cells arrested at G2 phase by treatment with bleomycin is set as 100%, is calculated as IC50 (bleo), and similarly a concentration of substance wherein the number of cells at M phase is reduced to 50% is calculated as IC50 (col), and the specificity to the G2 phase cells as the selectivity is shown in Table 1.

HCT-116 cells = test: Inhibitory action for G2 checkpoint using HCT-116 cells (cell cycle by FACS); type: cell-based, human; details: for IC50: Homo sapiens, 24 hours; for Selectivity IC50(col) /IC50(bleo): Table 2
Description: as §1
A cell suspension (15 ml) of HCT-116 cells derived from human colon cancer, adjusted to 1.5 × 10^5 cells/ml with McCoy's medium, was cultured in McCoy's 5A medium (a medium adding an inactivated fetal bovine serum (FBS) […] and a mixture 5 ml of penicillin (10,000 units/ml) and streptomycin (10 mg/ml) in McCoy's 5A (Invitrogen Inc.) 500 ml) in a 75-cm^3 culture flask (Corning Corp., the U.S.) under the atmosphere of […] at 37°C, and a subinoculation was performed after 3 days.
HCT-116 cells (500 µl) adjusted to give 1.5×10^5 cells/ml. were added into each well of a 24-well microplate (IWAKI Co., Japan) and incubated at 37°C for 24 hours. Thereafter, the medium was removed and 250 µl of 27 µM bleomycin or that of 0.5 µM colcicine prepared with McCoy's 5A medium were added in each well, and FKI-2342A substance - FKI-2342F substance dissolved in 0.5% DMSO, each 250 µl, were added (final concentration: bleomycin 13 µM, colchicine 0.25 µM, and 0.25% DMSO). The plate was incubated under […] at 37°C for 24 hours. After the incubation, the supernatant was recovered in 1.5 ml Eppendorf tube and stored on ice. Cells on the plate were detached by adding trypsin-EDTA solution (150 µl) and culturing at 37°C for 10 minutes. Immediately after the cells were detached, 300 µl of the medium were added to denature the trypsin, and were mixed with the supernatant which was stored on the ice. The mixture was centrifuged at 1,000 rpm for 10 minutes, and the supernatant was removed by using the aspirator, then Krishan's reagent (200 µl) was added thereto, and after allowing to stand for 1 hour, measurement was performed by using FACS.
Measurement of cell cycle was performed by measuring 10,000 cells using FACS Caliber (Becton Dickinson Inc.) to calculate ratio of cells in sub G1, G1, S, and G2/M phase by using analytical software cell Quest.
as §2, with “concentration of substance, in which the number” for “concentration of substance wherein the number”, “with bleomycin is' set as” for “with bleomycin is set as”, “reduced to 50%, is calculated” for “reduced to 50% is calculated”, “shown in Table'2.” for “shown in Table 1.”

[1] = cells arrested at G2 phase by bleomycin 40 µM reduced to 50%, 20 hours, Table 1, read-out: IC50 bleomycin
[2] = cells at M phase (colchicine 0.5 µM) reduced to 50%, 20 hours, Table 1, read-out: IC50 colchicine
[3] = cells arrested at G2 phase by bleomycin 13 µM reduced to 50%, read-out: IC50 bleomycin
[4] = cells at M phase (colchicine 0.25 µM) reduced to 50%, read-out: IC50 colchicine
[5] = cells arrested at G2 phase by bleomycin reduced to 50%, read-out: IC50 (bleo)
[6] = cells at M phase (colchicine) reduced to 50%, read-out: IC50 (col)

| IC50 (Jurkat cells; [1]) [µg/mL] | IC50 (Jurkat cells; [2]) [µg/mL] | IC50 (HCT-116 cells; [3]) [µg/mL] | IC50 (HCT-116 cells; [4]) [µg/mL] | Selectivity IC50(col) /IC50(bleo) (HCT-116 cells) | IC50 (Jurkat cells; [5]) [µg/mL] | IC50 (Jurkat cells; [6]) [µg/mL] | differences in a concentration ratio (IC50 (col) / IC50 (bleo)) (HCT-116 cells) [fold] | Structure (SMILES) | selectivity (Jurkat cells) | differences between both concentrations (Jurkat cells) [fold] |
| --- | --- | --- | --- | --- | --- | --- | --- | --- | --- | --- |
| 100 (≈ 387 µM) | 200 (≈ 774 µM) | 120 (≈ 465 µM) | 180 (≈ 697 µM) | 2 |  |  |  | C=C(C(=O)O)C(CCCCCC(=O)OC)C(=O)O (centres unmarked) [B] | 2 |  |
| 100 (≈ 367 µM) | 200 (≈ 734 µM) | 120 (≈ 441 µM) | 180 (≈ 661 µM) | 2 |  |  |  | C=C(C(=O)O)C(CCCCCC(=O)OCC)C(=O)O (centres unmarked) [C] | 2 |  |
| 1.2 (≈ 4.19 µM) | 10 (≈ 34.9 µM) | 2 (≈ 6.99 µM) | 20 (≈ 69.9 µM) | 8 | 1.2 (≈ 4.19 µM) | 10 (≈ 34.9 µM) | 10 | C=C(C(=O)O)C(CCCCCCCC(=O)OC)C(=O)O (centres unmarked) [E] | 8 | 8 |

Further lines, the compound ahead of its results:

| Structure (SMILES) | IC50 (Jurkat cells; [1]) [µg/mL] | IC50 (Jurkat cells; [2]) [µg/mL] | IC50 (HCT-116 cells; [3]) [µg/mL] | IC50 (HCT-116 cells; [4]) [µg/mL] | Selectivity IC50(col) /IC50(bleo) (HCT-116 cells) | IC50 (Jurkat cells; [5]) [µg/mL] | IC50 (Jurkat cells; [6]) [µg/mL] | differences in a concentration ratio (IC50 (col) / IC50 (bleo)) (HCT-116 cells) [fold] | selectivity (Jurkat cells) | differences between both concentrations (Jurkat cells) [fold] |
| --- | --- | --- | --- | --- | --- | --- | --- | --- | --- | --- |
| C=C(C(=O)O)C(CCCC(=O)OC)C(=O)OC (centres unmarked) [A] | 100 (≈ 409 µM) | 200 (≈ 819 µM) | 120 (≈ 491 µM) | 180 (≈ 737 µM) | 2 |  |  |  | 2 |  |
| C=C(C(=O)O)C(CCCCCC(=O)OC)C(=O)OC (centres unmarked) [D] | 25 (≈ 91.8 µM) | 175 (≈ 643 µM) | 25 (≈ 91.8 µM) | 100 (≈ 367 µM) | 7 | 25 (≈ 91.8 µM) | 175 (≈ 643 µM) | 4 | 7 | 7 |
| C=C(C(=O)O)C(CCCC(=O)OCC)C(=O)O (centres unmarked) [F] | 100 (≈ 409 µM) | 200 (≈ 819 µM) | 100 (≈ 409 µM) | 180 (≈ 737 µM) | 2 |  |  |  | 2 |  |
